{"source": "patent EP0832891B1", "about": "“Dihydrobenzo (B) indeno (2,1-D) thiophene compounds, intermediates, processes, compositions, and methods” (ELI LILLY AND COMPANY, priority 1996, dated 1998)", "key": {"Eosinophil peroxidase": {"system": "Eosinophil peroxidase", "parameters": "species or system Sprague Dawley rats", "conditions": "rat, in vivo", "from_the_text": "(§1) Seventy-five day old female Sprague Dawley rats (weight range of 200 to 225g) were obtained from Charles River Laboratories (Portage, MI). The animals were either bilaterally ovariectomized (OVX) or exposed to a Sham surgical procedure at Charles River Laboratories, and then shipped after one week. Upon arrival, they were housed in metal hanging cages in groups of 3 or 4 per cage and had ad libitum access to food (calcium content approximately 0.5%) and water for one week. Room temperature was maintained at 22.2° ± 1.7° C with a minimum relative humidity of 40%. The photoperiod in the room was 12 hours light and 12 hours dark.\n(§2) Dosing Regimen Tissue Collection. After a one week acclimation period (therefore, two weeks post-OVX) daily dosing with test compound was initiated. […] The animals were then sacrificed by asphyxiation with CO2, the uterus was removed through a midline incision, and a wet uterine weight was determined.\nUterine Eosinophil Peroxidase (EPO) Assay. […] Upon addition of 0.01% hydrogen peroxide and 10 mM O-phenylenediamine (final concentrations) in Tris buffer, increase in absorbance was monitored for one minute at 450 nm. […] The maximal velocity of a 15 second interval was determined over the initial, linear portion of the reaction curve."}, "ovariectomized rats [1]": {"system": "ovariectomized rats", "parameters": "species or system Sprague Dawley rats", "conditions": "rat, in vivo, po, 0.1 mg/kg/day", "description": "(§3) In the examples illustrating the methods, a postmenopausal model was used in which effects of different treatments upon circulating lipids were determined.\nas §1\nas §2, with “initiated. 17α-ethynyl estradiol or the test compound were given orally, unless otherwise stated, as a suspension in 1% carboxymethylcellulose or dissolved in 20% cyclodextrin. Animals were dosed daily for 4 days.” for “initiated.”"}, "ovariectomized rats [2]": {"system": "ovariectomized rats", "assay": "Serum cholesterol analysis in ovariectomized rats", "assay_type": "in vivo, Sprague Dawley rats", "conditions": "for Serum Cholest. % Decrease: daily for 4 days, versus ovariectomized controls", "description": "as §3, §1\nDosing Regimen Tissue Collection. After a one week acclimation period (therefore, two weeks post-OVX) daily dosing with test compound was initiated. 17α-ethynyl estradiol or the test compound were given orally, unless otherwise stated, as a suspension in 1% carboxymethylcellulose or dissolved in 20% cyclodextrin. Animals were dosed daily for 4 days. Following the dosing regimen, animals were weighed and anesthetized with a ketamine: xylazine (2:1, V:V) mixture and a blood sample was collected by cardiac puncture. The animals were then sacrificed by asphyxiation with CO2, the uterus was removed through a midline incision, and a wet uterine weight was determined.\nCholesterol Analysis. Blood samples were allowed to clot at room temperature for 2 hours, and serum was obtained following centrifugation for 10 minutes at 3000 rpm. Serum cholesterol was determined using a Boehringer Mannheim Diagnostics high performance cholesterol assay. Briefly the cholesterol was oxidized to cholest-4-en-3-one and hydrogen peroxide. The hydrogen peroxide was then reacted with phenol and 4-aminophenazone in the presence of peroxidase to produce a p-quinone imine dye, which was read spectrophotemetrically at 500 nm. Cholesterol concentration was then calculated against a standard curve."}, "[3]": {"system": "MCF-7 breast adenocarcinoma cells", "assay": "MCF-7 Proliferation Assay (tritiated thymidine uptake)", "assay_type": "cell-based", "conditions": "Homo sapiens, MCF7; MCF-7 cells, 48 hours with drug, tritiated thymidine pulse 4 hours", "description": "MCF-7 breast adenocarcinoma cells (ATCC HTB 22) were maintained in MEM (minimal essential medium, phenol red-free, Sigma, St. Louis, MO) supplimented with 10% fetal bovine serum (FBS) (V/V), L-glutamine (2 mM), sodium pyruvate (1 mM), HEPES {(N-[2-hydroxyethyl]piperazine-N'-[2-ethanesulfonic acid]10 mM}, non-essential amino acids and bovine insulin (1 µg/mL) (maintenance medium). Ten days prior to assay, MCF-7 cells were switched to maintenance medium supplemented with 10% dextran coated charcoal stripped fetal bovine serum (DCC-FBS) assay medium) in place of 10% FBS to deplete internal stores of steroids. MCF-7 cells were removed from maintenance flasks using cell dissociation medium (Ca++/Mg++ free HBSS (phenol red-free) supplemented with 10 mM HEPES and 2 mM EDTA). Cells were washed twice with assay medium and adjusted to 80,000 cells/mL. Approximately […] (8,000 cells) were added to flat-bottom microculture wells (Costar 3596) and incubated at 37° C in a 5% CO2 humidified incubator for 48 hours to allow for cell adherence and equilibration after transfer. Serial dilutions of drugs or DMSO as a diluent control were prepared in assay medium and […] to triplicate microcultures […]. […] Samples were counted by liquid scintillation using a Wallace BetaPlace β counter."}}, "note": "Marks after values point to notes of the source that are not given here.", "data": [{"smiles": "C#C[C@]1(O)CC[C@H]2[C@@H]3CCc4cc(O)ccc4[C@H]3CC[C@@]21C", "note": "[EE2, 17α-ethynyl estradiol, reference compound]", "values": [{"measurement": "Uterine Eosinophil (Vmax)", "setting": "Eosinophil peroxidase", "value": "357.3*"}, {"measurement": "eosinophil infiltration into the uterus (result in words)", "setting": "Eosinophil peroxidase", "value": "substantial, expected increase in eosinophil infiltration"}, {"measurement": "uterine weight (result in words)", "setting": "ovariectomized rats [1]", "value": "substantially greater than the uterine weight of ovariectomized test animals"}, {"measurement": "Serum Cholest. % Decrease", "setting": "ovariectomized rats [2]; 0.1 mg/kg PO", "value": "95.2* %"}, {"measurement": "serum cholesterol (result in words)", "setting": "ovariectomized rats [2]; compared to ovariectomized control animals, EE2 orally at 0.1 mg/kg/day", "value": "caused a decrease in serum cholesterol"}]}, {"smiles": "Oc1ccc2c(c1)S[C@H]1c3ccccc3[C@@H](c3ccc(OCCN4CCCCC4)cc3)[C@@H]21", "note": "[Example 3]", "values": [{"measurement": "Serum Cholest. % Decrease", "setting": "ovariectomized rats [2]; 0.1 mg/kg PO", "value": 12.0, "unit": "%"}, {"measurement": "Serum Cholest. % Decrease", "setting": "ovariectomized rats [2]; 1 mg/kg PO", "value": "35.7* %"}, {"measurement": "Serum Cholest. % Decrease", "setting": "ovariectomized rats [2]; 10 mg/kg PO", "value": "65.0* %"}, {"measurement": "EC50", "setting": "[3]", "value": 0.1, "unit": "µM"}]}]}
